The values that follow come from patent publication US20250214967A1, “FAK DEGRADERS, PHARMACEUTICAL COMPOSITIONS, AND THERAPEUTIC APPLICATIONS” (Berrybio (Shanghai) Limited, priority 2022, published 2025).

For this experiment, the target named is FAK (Homo sapiens (Human), UniProt Q05397). Briefly: FAK Degradation Assay (Western blot, FAK/GAPDH). It counts as cell-based. The note with it: MDA-MB-231 cells, 24 h treatment, Western blot normalized to DMSO; for DC50: read-out: DC50 (half-maximal degradation concentration), FAK Degradation; for Dmax: read-out: Dmax (maximal degradation), FAK Degradation. As to the method: H2122 (4×10^5), MIA PaCa-2 (6×10s), or MDA-MB-231 cells (6×10^5) per well were seeded into a 6-well plate containing 2 mL of complete culture medium (RPMI-1640 for H2122 and MDA-MB-231, and DMEM/F12 for MIA PaCa-2, supplemented with 10% FBS and 1% penicillin/streptomycin). The cells were cultured overnight at 37° C. in the presence of 5% C02 before treated with a compound in a series of concentrations for 24 h. The cells were then washed with ice-cold Dulbecco's phosphate-buffered saline (DPBS). A radioimmuno-precipitation assay (RIPA) buffer was added to lyse the cells on ice for 20 min. The cells were then scrapped using cell scraper and collected in a 1.5 mL tube, which was centrifuged at 14,000 g and 4° C. for 15 min. The supernatant was collected and the total protein concentration of each sample was determined using a PIERCE™ BCA protein assay kit. The supernatant was diluted to the same protein concentration with the RIPA buffer after the BCA assay. Samples of the same protein amount were mixed with 4× a lithium dodecyl sulfate (LDS) sample buffer and boiled at 95° C. for 5 min. The denatured samples were used for electrophoresis.
Sequence of FAK (Q05397 whole entry): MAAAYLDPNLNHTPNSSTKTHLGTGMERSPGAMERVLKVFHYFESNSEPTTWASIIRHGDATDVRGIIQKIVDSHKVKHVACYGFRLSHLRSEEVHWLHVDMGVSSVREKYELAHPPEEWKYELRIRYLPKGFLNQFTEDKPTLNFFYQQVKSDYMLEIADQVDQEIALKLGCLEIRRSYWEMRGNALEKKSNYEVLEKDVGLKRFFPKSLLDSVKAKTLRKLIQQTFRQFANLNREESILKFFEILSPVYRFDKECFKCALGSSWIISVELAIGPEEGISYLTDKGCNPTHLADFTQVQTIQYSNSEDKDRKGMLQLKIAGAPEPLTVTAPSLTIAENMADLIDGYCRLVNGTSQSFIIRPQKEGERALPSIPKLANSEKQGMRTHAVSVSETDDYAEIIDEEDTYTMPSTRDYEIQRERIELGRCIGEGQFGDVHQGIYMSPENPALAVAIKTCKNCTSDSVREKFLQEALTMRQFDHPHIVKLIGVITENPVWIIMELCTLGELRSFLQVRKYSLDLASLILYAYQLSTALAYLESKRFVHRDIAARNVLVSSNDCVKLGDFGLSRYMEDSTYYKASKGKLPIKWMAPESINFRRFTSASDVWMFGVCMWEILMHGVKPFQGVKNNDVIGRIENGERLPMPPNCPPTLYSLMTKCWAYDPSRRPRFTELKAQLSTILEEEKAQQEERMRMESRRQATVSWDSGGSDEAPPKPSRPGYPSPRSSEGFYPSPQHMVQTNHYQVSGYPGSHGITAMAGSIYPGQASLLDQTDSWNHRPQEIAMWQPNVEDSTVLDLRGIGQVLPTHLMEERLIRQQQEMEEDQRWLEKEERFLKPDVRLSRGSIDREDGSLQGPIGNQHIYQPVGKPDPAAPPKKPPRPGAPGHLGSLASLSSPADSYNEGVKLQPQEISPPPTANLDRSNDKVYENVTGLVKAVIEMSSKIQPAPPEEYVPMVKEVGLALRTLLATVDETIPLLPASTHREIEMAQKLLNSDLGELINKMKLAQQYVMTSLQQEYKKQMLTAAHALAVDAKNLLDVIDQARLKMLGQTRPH
For Western blot, the same volume containing ˜50 μg protein for each sample was loaded onto 4-12% Bis-Tris protein gel. The gel was run at 80 V for 0.5 h and at 120 V for 1 h. When the electrophoresis was completed, an IBLOT™ 2 gel transfer device was used to transfer FAK and GAPDH proteins at 20 V for 7 min. All the membranes were blocked in 5% nonfat dry milk in a TBST buffer at RT for 1 h and then incubated with primary antibodies (anti-FAK and anti-GAPDH) in a TBST buffer containing 5% BSA at 4° C. overnight. The membranes were washed with the TBST buffer and then incubated with secondary antibodies (goat anti-rabbit IgG H&L for FAK and goat anti-mouse IgG H&L for GAPDH) at room temperature for 1 h. Blots were visualized using an IMAGEQUANT™ LAS-4000. The chemiluminescent signals from ECL™ Western blotting reagents were captured. The band integrated intensity from each 16-bit blot image was used for quantitation. The FAK/GAPDH signal ratios of each sample were normalized using DMSO as a control and the normalized data for each compound were used to obtain its half-maximal degradation concentration (DC50) and maximal degradation (Dmax).
A general note: Immunoblotting shows a protein as a band on a membrane.

As a reminder, the Dmax is the greatest extent of degradation seen.

The structures appear in SMILES notation.

Regarding `O=C1CCC(N2C(=O)c3ccc(N4CCC(NCc5ccc(Nc6ncc(C(F)(F)F)c(Oc7cccc8c7C(=O)CC8)n6)cc5)CC4)cc3C2=O)C(=O)N1` (stereo not shown) [Compound A27, 2-(2,6-dioxopiperidin-3-yl)-5-(4-((4-((4-((3-oxo-2,3-dihydro-1H-inden-4-yl)oxy)-5-(trifluoromethyl)pyrimidin-2-yl)amino)benzyl)amino)piperidin-1-yl)isoindoline-1,3-dione], the DC50 was 1.3 nM and the Dmax came out at 94%.

`CNC(=O)c1ccccc1Nc1cc(Nc2ccc(CNC3CCN(c4ccc5c(c4)C(=O)N(C4CCC(=O)NC4=O)C5=O)CC3)cc2)ncc1C(F)(F)F` (stereo not shown) [Compound A22, 2-((2-((4-(((1-(2-(2,6-Dioxopiperidin-3-yl)-1,3-dioxoisoindolin-5-yl)piperidin-4-yl)amino)methyl)phenyl)amino)-5-(trifluoromethyl}pyridin-4-yl)amino)-N-methylbenzamide]: the DC50 is 3.5 nM and the maximal degradation (Dmax) was 93%.

`CS(=O)(=O)c1ccccc1Nc1cc(Nc2ccc(CNC3CCN(c4ccc5c(c4)C(=O)N(C4CCC(=O)NC4=O)C5=O)CC3)cc2)ncc1C(F)(F)F` (stereo not shown) [Compound A34, 2-(2,6-Dioxopiperidin-3-yl)-5-(4-((4-((4-((2-(methylsulfonyl)phenyl)amino)-5-(trifluoromethyl)pyridin-2-yl)amino)benzyl)amino)piperidin-1-yl)isoindoline-1,3-dione]: the DC50 came out at 25 nM and the maximal degradation (Dmax) was 83%.

`CN(c1ccccc1CNc1cc(Nc2ccc(C(=O)NC3CCN(c4ccc5c(c4)C(=O)N(C4CCC(=O)NC4=O)C5=O)CC3)cc2)ncc1C(F)(F)F)S(C)(=O)=O` (stereo not shown) [Compound A15, N-(1-(2-(2,6-dioxopiperidin-3-yl)-1,3-dioxoisoindolin-5-yl)piperidin-4-yl)-4-((4-((2-(N-methylmethylsulfonamido)benzyl)amino)-5-(trifluoromethyl)pyridin-2-yl)amino)-benzamide]: the DC50 came out at 2.6 nM and the maximal degradation (Dmax) was 93%.

Regarding `CS(=O)(=O)c1cccc(CNc2nc(Nc3ccc(CNC4CCN(c5ccc6c(c5)C(=O)N(C5CCC(=O)NC5=O)C6=O)CC4)cc3)ncc2C(F)(F)F)c1` (stereo not shown) [Compound A24, 2-(2,6-Dioxopiperidin-3-yl)-5-(4-((4-((4-((3-(methylsulfonyl)benzyl)amino)-5-(trifluoromethyl)pyrimidin-2-yl)amino)benzyl)amino)piperidin-1-yl)isoindoline-1,3-dione], the DC50 is 0.7 nM and the Dmax stood at 87%.

In the case of `COc1cc(CN[C@@H]2CCN(c3ccc4c(c3)C(=O)N(C3CCC(=O)NC3=O)C4=O)C2)c(F)cc1Nc1ncc(C(F)(F)F)c(Oc2cccc3c2C(=O)N(C)C3)n1` (stereo partly drawn) [Compound A58, 2-(2,6-Dioxopiperidin-3-yl)-5-((R)-3-((2-fluoro-5-methoxy-4-((4-((2-methyl-3-oxoisoindolin-4-yl)oxy)-5-(trifluoromethyl)pyrimidin-2-yl)amino)benzyl)amino)pyrrolidin-1-yl)isoindoline-1,3-dione], the DC50 is 0.9 nM and the Dmax worked out at 84%.

Regarding `CNC(=O)c1ccccc1Nc1nc(Nc2ccc(CNC3CCN(c4ccc5c(c4)C(=O)N(C4CCC(=O)NC4=O)C5=O)CC3)cc2)ncc1C(F)(F)F` (stereo not shown) [Compound A25, 2-((2-((4-(((1-(2-(2,6-dioxopiperidin-3-yl)-1,3-dioxoisoindolin-5-yl)piperidin-4-yl)amino)methyl)phenyl)amino)-5-(trifluoromethyl)pyrimidin-4-yl)amino)-N-methylbenzamide], the DC50 came out at 0.13 nM and the maximal degradation (Dmax) came to 97%.

In the case of `CN(c1ccccc1CNc1cc(Nc2ccc(CNC3CCN(c4ccc5c(c4)C(=O)N(C4CCC(=O)NC4=O)C5=O)CC3)c(F)c2)ncc1C(F)(F)F)S(C)(=O)=O` (stereo not shown) [Compound A35, N-(2-(((2-((4-(((1-(2-(2,6-Dioxopiperidin-3-yl)-1,3-dioxoisoindolin-5-yl)-piperidin-4-yl)amino)methyl)-3-fluorophenyl)amino)-5-(trifluoromethyl)pyridin-4-yl)amino)-methyl)phenyl)-N-methylmethanesulfonamide], the DC50 came to 8.1 nM and the maximal degradation (Dmax) amounted to 95%.

Turning to `CN(c1ccccc1CNc1cc(Nc2ccc(CN3CC(Oc4ccc5c(c4)C(=O)N(C4CCC(=O)NC4=O)C5=O)C3)cc2)ncc1C(F)(F)F)S(C)(=O)=O` (stereo not shown) [Compound A18, N-(2-(((2-((4-((3-((2-(2,6-Dioxopiperidin-3-yl)-1,3-dioxoisoindolin-5-yl)oxy)-azetidin-1-yl)methyl)phenyl)amino)-5-(trifluoromethyl)pyridin-4-yl)amino)methyl)phenyl)-N-methylmethanesulfonamide], the DC50 is 21 nM and the Dmax was determined as 84%.

In the case of `CN(c1nccnc1CNc1nc(Nc2ccc(CNC3CCN(c4ccc5c(c4)C(=O)N(C4CCC(=O)NC4=O)C5=O)CC3)c(F)c2)ncc1C(F)(F)F)S(C)(=O)=O` (stereo not shown) [Compound A30, N-(3-(((2-((4-(((1-(2-(2,6-dioxopiperidin-3-yl)-1,3-dioxoisoindolin-5-yl)piperidin-4-yl)amino)methyl)-3-fluorophenyl)amino)-5-(trifluoromethyl)pyrimidin-4-yl)amino)methyl)-pyrazin-2-yl)-N-methylmethanesulfonamide], the DC50 came out at 1.3 nM and the Dmax was determined as 96%.

Consider `CNC(=O)c1ccccc1Nc1nc(Nc2ccc(CNC3CCN(c4ccc(C5CCC(=O)NC5=O)cc4)CC3)cc2)ncc1C(F)(F)F` (stereo not shown) [Compound B2, 2-((2-((4-(((1-(4-(2,6-Dioxopiperidin-3-yl)phenyl)piperidin-4-yl)amino)methyl)-phenyl)amino)-5-(trifluoromethyl)pyrimidin-4-yl)amino)-N-methylbenzamide], for which the DC50 was 0.2 nM and the greatest degradation seen (Dmax) was determined as 98%.

For `CN(c1nccnc1CNc1nc(Nc2ccc(CN[C@@H]3CCN(c4ccc5c(c4)C(=O)N(C4CCC(=O)NC4=O)C5=O)C[C@@H]3F)cc2)ncc1C(F)(F)F)S(C)(=O)=O` (stereo partly drawn) [Compound A36, N-(3-(((2-((4-((((3S,4R)-1-(2-(2,6-Dioxopiperidin-3-yl)-1,3-dioxoisoindolin-5-yl)-3-fluoropiperidin-4-yl)amino)methyl)phenyl)amino)-5-(trifluoromethyl)pyrimidin-4-yl)amino)-methyl)pyrazin-2-yl)-N-methylmethanesulfonamide], the DC50 was 0.83 nM and the greatest degradation seen (Dmax) was 94%.

For `CN(c1ccccc1CNc1cc(Nc2ccc(C(=O)NC3CN(c4ccc5c(c4)C(=O)N(C4CCC(=O)NC4=O)C5=O)C3)cc2)ncc1C(F)(F)F)S(C)(=O)=O` (stereo not shown) [Compound A20, N-(1-(2-(2,6-Dioxopiperidin-3-yl)-1,3-dioxoisoindolin-5-yl)azetidin-3-yl)-4-((4-((2-(N-methylmethylsulfonamido)benzyl)amino)-5-(trifluoromethyl)pyridin-2-yl)amino)-benzamide], the DC50 amounted to 4.6 nM and the Dmax stood at 79%.

On to `CNC(=O)c1ccccc1Nc1nc(Nc2ccc(CCN3CCN(c4ccc5c(c4)C(=O)N(C4CCC(=O)NC4=O)C5=O)CC3)c(F)c2)ncc1C(F)(F)F` (stereo not shown) [Compound A44, 2-((2-((4-(2-(4-(2-(2,6-dioxopiperidin-3-yl)-1,3-dioxoisoindolin-5-yl)piperazin-1-yl)ethyl)-3-fluorophenyl)amino)-5-(trifluoromethyl)pyrimidin-4-yl)amino)-N-methylbenzamide], for which the DC50 turned out to be 0.96 nM and the Dmax came to 92%.
